Laboratory results reported in patent US20230076733A1, “Combination Therapy” (AGENCY FOR SCIENCE, TECHNOLOGY AND RESEARCH, priority 2020, published 2023).
pIC50: −log10 of the molar value. Several values for one entry are separate records, joined by “and”; a condition that tells them apart may be missing. Equal values may be shown once.

Legend:
Type in all cases: cell-based
[1] = test system: EGI-1 cells; assay: soft agar colony formation assay, EGI-1 cells; details: for Colony count: duplicate wells
Description: (§1) The IC50 and EC50 values for each combination partner (a) and (b) with the specific cell lines are determined from the response plot. A dose-response assay for each combination partner and the combination at different concentrations based on the IC50 values of each combination partner was performed. Computed EC50-EC95 values were then generated by a software (as disclosed herein) based on the drug concentration and the respective colony growth numbers.
(§2) 6. Cell lines used and number of cells seeded per well
(§3) (1) Base Layer—0.6% Agar per 300 μL per well.
(§4) Microwave the agar for 1-2 min so that it is completely melted. Add 5.4 ml of the melted agar into 21.6 ml of pre-warmed media (All media and agar preparation is made in excess for 2.5 plates). Aliquot 300 μl of the suspension into each well, avoiding the first and last columns of the plates. Fill the first and last columns of wells with 500 μl of sterile water or phosphate buffered saline. Incubate the plates in 37° C. incubator for 45 min-1 hr to allow agar to solidify.
(§5) (2) Middle Layer— 0.3% Agar plus corresponding number of cells per well
(§6) Trypsinize the adherent cells and suspend them in 5 ml of media. Determine the number of cells in the suspension and calculate the volume of cell suspension required for seeding. Mix the agar and media together first, excluding the volume of cell suspension. Add the cell suspension last into the mixture. Mix well and aliquot 250 μl into each well containing the base layer. Incubate the plates in a 37° C. incubator for 1-1.5 hrs to allow the agar to solidify.
(§7) Prepare the required concentration of compounds based on the IC50 values of each drug.
(§8) (Pre-determine the IC50 values for each drug with the corresponding cell-line using a dose-response assay)
(§9) Row A& B: Aliquot 250 μl of diluted Drug A per well
(§10) Row C&D: Aliquot 250 μl of diluted Drug B per well
(§11) Row E& F: Aliquot 250 μl of diluted Drug A and B mixed at 1:1 ratio for each well
(§12) Assay Results Analysis Method • 1. Score the colonies after 2 to 3 weeks depending on the colony forming status for different cell line. • 2. Before scoring the colonies, add 35 μl MTT (5 mg/ml) to the wells with cells and incubate at 37° C. for 2-3 hrs depending on the intensity of colour development. • 3. Once the colonies are stained, count the total number of colonies formed using the Oxford Optronix GelCount® instrument. • 4. Average the total number of colonies obtained for each drug dose point and represent it as a fraction over the control. This represents the fraction of colony growth. […] Incorporate the fraction of inhibition and the corresponding dose values into the Chou Talalay Software available online (http://www.combosyn.com/) to obtain the combination index values. • 6. The combination index values will give an indication as to whether the combined drugs are synergistic, antagonistic or additive in the treated cells, as shown in Table 2 below.
FIG. 2 illustrates a dose-response assay plate containing EGI-1 cells (Test 1) after testing compounds at different concentrations based on the IC50 values of each compound. EGI-1 is a cell line established from cholangiocarcinoma (bile duct adenocarcinoma).

[2] = test system: MCAS cells; assay: soft agar colony formation assay, MCAS cells; details: for Colony count: MCAS, duplicate wells
Description: as §1, §2, §3, §4, §5, §6, §7, §8, §9, §10, §11
as §12, with “6.” for “6. The combination index values will give an indication as to whether the combined drugs are synergistic, antagonistic or additive in the treated cells, as shown in Table 2 below.”
MCAS is a cell line established from ovarian mucinous cystadenocarcinoma (ovarian cancer).

[3] = test system: CFPAC-1 cells; assay: soft agar colony formation assay, CFPAC-1 cells; details: for Colony count: duplicate wells
Description: as §1, §2, §3, §4, §5, §6, §7, §8, §9, §10, §11, §12
FIG. 8 illustrates a dose-response assay plate containing CFPAC-1 cells (Test 1) after testing compounds at different concentrations based on the IC50 values of each compound. CFPAC-1 is a cell line established from cystic fibrosis and pancreatic ductal adenocarcinoma.

[4] = test system: TFK-1 cells; assay: soft agar colony formation assay, TFK-1 cells; details: for Colony count: duplicate wells
Description: as §1, §2, §3, §4, §5, §6, §7, §8, §9, §10, §11, §12
FIG. 10 illustrates a dose-response assay plate containing TFK-1 cells (Test 1) after testing compounds at different concentrations based on the IC50 values of each compound. TFK-1 is a cell line established from cholangiocarcinoma (bile duct adenocarcinoma).

- pIC50 ([1]; EGI-1 cells, pre-determined by dose-response assay): 7.56
- pIC50 ([2]; MCAS cells, pre-determined by dose-response assay): 6.54
- pIC50 ([3]; CFPAC-1 cells, pre-determined by dose-response assay): 7.57
- pIC50 ([4]; TFK-1 cells, pre-determined by dose-response assay): 4.92
Compound: Cn1c(=O)c2c(ncn2CC(=O)Nc2ccc(-c3ccccc3)nn2)n(C)c1=O [Ex 1, 2-(1,3-dimethyl-2,6-dioxo-2,3-dihydro-1H-purin-7 (6H)-yl)-N-(6-phenylpyridazin-3-yl)acetamide]
- Colony count ([1]; EGI-1, Test 1, 0.25x IC50: dose Olaparib 2.16362, Ex 1 0.00687, combination both 1:1): 1742 and 1591
- Colony count ([1]; EGI-1, Test 1, 0.5x IC50: dose Olaparib 4.32725, Ex 1 0.01375, combination both 1:1): 1351
- Colony count ([1]; EGI-1, Test 1, 1x IC50: dose Olaparib 8.6545, Ex 1 0.0275, combination both 1:1): 985 and 912
- Colony count ([1]; EGI-1, Test 1, 2x IC50: dose Olaparib 17.309, Ex 1 0.055, combination both 1:1): 608 and 646
- Colony count ([1]; EGI-1, Test 1, 4x IC50: dose Olaparib 34.618, Ex 1 0.11, combination both 1:1): 515 and 465
- Colony count ([1]; EGI-1, Test 2, 0.25x IC50: dose Olaparib 2.16362, Ex 1 0.00687, combination both 1:1): 1488 and 1451
- Colony count ([1]; EGI-1, Test 2, 0.5x IC50: dose Olaparib 4.32725, Ex 1 0.01375, combination both 1:1): 1242 and 1139
- Colony count ([1]; EGI-1, Test 2, 1x IC50: dose Olaparib 8.6545, Ex 1 0.0275, combination both 1:1): 816 and 771
- Colony count ([1]; EGI-1, Test 2, 2x IC50: dose Olaparib 17.309, Ex 1 0.055, combination both 1:1): 568 and 476
- Colony count ([1]; EGI-1, Test 2, 4x IC50: dose Olaparib 34.618, Ex 1 0.11, combination both 1:1): 434 and 412
- Colony count ([2]; Test 1, 0.25x IC50: dose Olaparib 0.99475, Ex 1 0.07175, combination both 1:1): 598 and 557
- Colony count ([2]; Test 1, 0.5x IC50: dose Olaparib 1.9895, Ex 1 0.1435, combination both 1:1): 462 and 445
- Colony count ([2]; Test 1, 1x IC50: dose Olaparib 3.979, Ex 1 0.287, combination both 1:1): 301 and 328
- Colony count ([2]; Test 1, 2x IC50: dose Olaparib 7.958, Ex 1 0.574, combination both 1:1): 252 and 273
- Colony count ([2]; Test 1, 4x IC50: dose Olaparib 15.918, Ex 1 1.148, combination both 1:1): 147 and 151
- Colony count ([2]; Test 2, 0.25x IC50: dose Olaparib 0.99475, Ex 1 0.07175, combination both 1:1): 976 and 921
- Colony count ([2]; Test 2, 0.5x IC50: dose Olaparib 1.9895, Ex 1 0.1435, combination both 1:1): 744 and 875
- Colony count ([2]; Test 2, 1x IC50: dose Olaparib 3.979, Ex 1 0.287, combination both 1:1): 694 and 706
- Colony count ([2]; Test 2, 2x IC50: dose Olaparib 7.958, Ex 1 0.574, combination both 1:1): 644 and 588
- Colony count ([2]; Test 2, 4x IC50: dose Olaparib 15.916, Ex 1 1.148, combination both 1:1): 419 and 326
- Colony count ([3]; CFPAC-1, Test 1, 0.25x IC50: dose Olaparib 1.5625, Ex 1 0.00675, combination both 1:1): 441 and 464
- Colony count ([3]; CFPAC-1, Test 1, 0.5x IC50: dose Olaparib 3.125, Ex 1 0.0135, combination both 1:1): 445 and 505
- Colony count ([3]; CFPAC-1, Test 1, 1x IC50: dose Olaparib 6.25, Ex 1 0.027, combination both 1:1): 386 and 412
- Colony count ([3]; CFPAC-1, Test 1, 2x IC50: dose Olaparib 12.5, Ex 1 0.054, combination both 1:1): 346 and 322
- Colony count ([3]; CFPAC-1, Test 1, 4x IC50: dose Olaparib 25, Ex 1 0.108, combination both 1:1): 315 and 320
- Colony count ([3]; CFPAC-1, Test 2, 0.25x IC50: dose Olaparib 1.5625, Ex 1 0.00675, combination both 1:1): 676 and 624
- Colony count ([3]; CFPAC-1, Test 2, 1x IC50: dose Olaparib 6.25, Ex 1 0.027, combination both 1:1): 649 and 563
- Colony count ([3]; CFPAC-1, Test 2, 2x IC50: dose Olaparib 12.5, Ex 1 0.054, combination both 1:1): 581 and 588
- Colony count ([3]; CFPAC-1, Test 2, 4x IC50: dose Olaparib 25, Ex 1 0.108, combination both 1:1): 536 and 527
- Colony count ([4]; TFK-1, Test 1, 0.25x IC50: dose Olaparib 4.5, Ex 1 3, combination both 1:1): 921 and 950
- Colony count ([4]; TFK-1, Test 1, 0.5x IC50: dose Olaparib 9, Ex 1 6, combination both 1:1): 805 and 700
- Colony count ([4]; TFK-1, Test 1, 1x IC50: dose Olaparib 18, combination both 1:1): 557 and 581
- Colony count ([4]; TFK-1, Test 1, 2x IC50: dose Olaparib 36, Ex 1 24, combination both 1:1): 402 and 384
- Colony count ([4]; TFK-1, Test 1, 4x IC50: dose Olaparib 72, Ex 1 48, combination both 1:1): 239 and 198
- Colony count ([4]; TFK-1, Test 2, 0.25x IC50: dose Olaparib 4.5, Ex 1 3, combination both 1:1): 916 and 840
- Colony count ([4]; TFK-1, Test 2, 0.5x IC50: dose Olaparib 9, Ex 1 6, combination both 1:1): 770 and 818
- Colony count ([4]; TFK-1, Test 2, 1x IC50: dose Olaparib 18, combination both 1:1): 567 and 559
- Colony count ([4]; TFK-1, Test 2, 2x IC50: dose Olaparib 36, Ex 1 24, combination both 1:1): 336 and 249
- Colony count ([4]; TFK-1, Test 2, 4x IC50: dose Olaparib 72, Ex 1 48, combination both 1:1): 101 and 148
